Test results from patent publication US7196117B2, “Use of cationic surfactant as activity enhancer in deodorants and oral care” (Laboratorios Miret, S.A., priority 2001, dated 2007).

How the values were obtained:
[1] = metabolism in rats; type: in vivo
[2] = toxicological studies; type: in vivo; conditions: animals and humans

CCCCCCCCCCCC(=O)N[C@@H](CCCN=C(N)N)C(=O)OCC.Cl [LAE, ethyl ester of the lauramide of the arginine monohydrochloride]
absorption and metabolism [1]: fast absorption and metabolism into naturally-occurring amino acids and the fatty acid lauric acid | toxicity [2]: completely harmless to animals and humans
